By IC50 is commonly meant the concentration that gives 50% inhibition. What is called EC50 is the concentration that produces a half-maximal response.

The text below walks through data of ChEMBL document CHEMBL1201862, “PubChem BioAssay data set” (2004).

The source made the active and inactive calls.

For assay [1], the target named is E3 ubiquitin-protein ligase Mdm2/Protein Mdm4 (Homo sapiens, UniProt O15151+Q00987). The assay can be described thus: disruption of Mdm2/MdmX protein binding – luminescence detection, dose response (AID 504593). The assay is classed as functional.
In assay [2] the target is T1, SUMO-activating enzyme (Homo sapiens, UniProt Q9UBT2). Description: blockers of SAE1/SAE2–UBC9 SUMO transfer – biochemical, HTRF, uHTS, primary screen (AID 2006). The assay is classed as protein-complex assay.
For assay [3], the target named is T1, SUMO-activating enzyme. Description: blockers of UBC9-mediated SUMO conjugation – biochemical, AlphaScreen, SUMOylation inhibitor project, confirmation (AID 2018). The format is functional.
Assay [4] deals with T2, Heat shock factor protein 1 (Mus musculus, UniProt P38532).
T2 sequence (P38532 whole entry): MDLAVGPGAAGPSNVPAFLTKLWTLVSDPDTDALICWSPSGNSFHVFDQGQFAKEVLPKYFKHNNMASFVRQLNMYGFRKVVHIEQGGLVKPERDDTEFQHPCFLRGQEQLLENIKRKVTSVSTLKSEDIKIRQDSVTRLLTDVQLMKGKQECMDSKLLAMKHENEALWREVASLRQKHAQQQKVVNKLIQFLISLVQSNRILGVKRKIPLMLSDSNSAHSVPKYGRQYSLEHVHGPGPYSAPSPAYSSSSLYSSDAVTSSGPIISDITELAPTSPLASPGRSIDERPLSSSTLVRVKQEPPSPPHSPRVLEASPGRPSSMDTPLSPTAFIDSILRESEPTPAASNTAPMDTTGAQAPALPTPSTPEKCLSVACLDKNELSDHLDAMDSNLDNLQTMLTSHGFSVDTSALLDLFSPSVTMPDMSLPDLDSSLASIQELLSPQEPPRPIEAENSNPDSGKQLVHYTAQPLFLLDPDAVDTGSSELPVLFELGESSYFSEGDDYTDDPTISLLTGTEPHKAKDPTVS
The assay can be described thus: enhancement of HSF1-driven luciferase signal – cell-based, NIH3T3, luminescence, dose retest, confirmation (AID 435004).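 Note: stress induced by proteasome inhibitor MG132 added 30 min after compound; luciferase reporter driven by HSF1 response element in NIH3T3 cells; actives raise luminescence as potentiators of the MG132 stress response.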 The format is functional.

Assay [5] deals with T3, Tyrosine-protein phosphatase non-receptor type 7 (Homo sapiens, UniProt P35236).
T3 sequence (P35236 whole entry): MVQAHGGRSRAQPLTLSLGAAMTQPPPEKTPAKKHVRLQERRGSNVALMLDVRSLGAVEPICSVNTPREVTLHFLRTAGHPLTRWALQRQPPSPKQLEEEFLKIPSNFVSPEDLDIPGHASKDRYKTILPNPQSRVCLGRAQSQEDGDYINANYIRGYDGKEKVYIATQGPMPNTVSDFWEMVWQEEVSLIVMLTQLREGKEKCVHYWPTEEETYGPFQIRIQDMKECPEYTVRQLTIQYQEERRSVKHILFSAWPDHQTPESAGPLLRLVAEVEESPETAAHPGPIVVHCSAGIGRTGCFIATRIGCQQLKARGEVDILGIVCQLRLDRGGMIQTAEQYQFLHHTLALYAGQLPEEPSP
Description: redox-active compounds inhibiting HePTP phosphatase – biochemical, fluorescence, mechanism study (AID 2068). The assay is classed as functional.

Assay [6] deals with Delta-type opioid receptor (Homo sapiens, UniProt P41143). Description: SAR Analysis of Antagonists of the DOR Receptor using an Image-Based Assay - Set 3. [Related pubchem assays (depositor defined):AID1777, AID1785]. The assay is classed as functional.
Assay [7] has as its target T4, Kappa-type opioid receptor (Homo sapiens, UniProt P41145). Description: SAR analysis of small molecule antagonists of the kappa opioid receptor via a luminescent beta-arrestin assay - Set 4. [Related pubchem assays (depositor defined):AID1777, AID1778, AID1785, AID1786, AID1966, AID2133, AID2136, AID2285]. The format is functional.
A further assay has as its target Mu-type opioid receptor (Homo sapiens, UniProt P35372). The assay can be described thus: SAR Analysis of Antagonists of the MOR Receptor using an Image-Based Assay - Set 3. [Related pubchem assays (depositor defined):AID1777, AID1785, AID1786, AID1966, AID2133, AID2136, AID2284, AID2285, AID2420]. The assay is classed as functional.
In assay [8] the target is T4, Kappa-type opioid receptor. The assay can be described thus: SAR analysis of Antagonists of the Kappa Opioid Receptor (KOR) using an Image-Based Assay - Set 4. [Related pubchem assays (depositor defined):AID1777, AID1785]. The assay is classed as functional.

T1 sequence (Q9UBE0 whole entry): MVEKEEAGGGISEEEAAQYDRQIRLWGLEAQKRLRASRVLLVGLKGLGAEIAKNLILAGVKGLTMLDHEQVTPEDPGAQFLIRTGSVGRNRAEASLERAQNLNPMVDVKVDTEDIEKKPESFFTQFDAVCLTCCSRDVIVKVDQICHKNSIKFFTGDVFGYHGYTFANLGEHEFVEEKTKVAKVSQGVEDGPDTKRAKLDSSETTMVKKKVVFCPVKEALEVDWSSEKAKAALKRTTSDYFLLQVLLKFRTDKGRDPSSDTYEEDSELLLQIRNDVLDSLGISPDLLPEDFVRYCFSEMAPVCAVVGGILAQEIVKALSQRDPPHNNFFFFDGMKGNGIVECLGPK
T1 sequence (Q9UBT2 whole entry): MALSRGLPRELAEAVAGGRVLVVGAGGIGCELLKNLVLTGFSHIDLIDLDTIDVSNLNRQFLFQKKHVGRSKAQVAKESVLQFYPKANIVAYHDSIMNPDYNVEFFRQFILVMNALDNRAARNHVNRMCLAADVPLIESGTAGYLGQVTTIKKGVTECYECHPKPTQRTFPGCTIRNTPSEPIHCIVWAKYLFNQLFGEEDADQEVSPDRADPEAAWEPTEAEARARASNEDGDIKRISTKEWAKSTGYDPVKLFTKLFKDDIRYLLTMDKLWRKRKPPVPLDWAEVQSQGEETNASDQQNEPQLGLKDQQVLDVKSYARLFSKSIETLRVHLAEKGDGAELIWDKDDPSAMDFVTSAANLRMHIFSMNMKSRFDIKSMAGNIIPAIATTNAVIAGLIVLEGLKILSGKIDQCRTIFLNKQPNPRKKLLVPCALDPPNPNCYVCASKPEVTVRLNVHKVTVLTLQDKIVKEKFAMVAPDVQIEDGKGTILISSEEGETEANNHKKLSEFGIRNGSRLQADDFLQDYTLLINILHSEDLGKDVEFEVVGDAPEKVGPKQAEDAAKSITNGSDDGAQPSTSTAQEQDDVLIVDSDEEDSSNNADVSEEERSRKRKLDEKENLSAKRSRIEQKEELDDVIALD
T4 sequence (P41145 whole entry): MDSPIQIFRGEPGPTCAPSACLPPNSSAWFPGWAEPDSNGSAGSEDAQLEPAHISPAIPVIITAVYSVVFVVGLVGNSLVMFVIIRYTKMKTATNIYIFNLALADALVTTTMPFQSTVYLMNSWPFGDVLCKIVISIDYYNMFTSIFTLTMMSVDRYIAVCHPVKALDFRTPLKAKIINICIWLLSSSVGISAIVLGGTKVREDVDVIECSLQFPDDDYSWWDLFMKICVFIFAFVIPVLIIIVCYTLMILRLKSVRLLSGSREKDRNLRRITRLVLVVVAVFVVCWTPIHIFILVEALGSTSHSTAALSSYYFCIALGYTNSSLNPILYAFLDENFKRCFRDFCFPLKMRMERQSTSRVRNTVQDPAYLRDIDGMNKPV
Chain of Mu-type opioid receptor (P35372 whole entry): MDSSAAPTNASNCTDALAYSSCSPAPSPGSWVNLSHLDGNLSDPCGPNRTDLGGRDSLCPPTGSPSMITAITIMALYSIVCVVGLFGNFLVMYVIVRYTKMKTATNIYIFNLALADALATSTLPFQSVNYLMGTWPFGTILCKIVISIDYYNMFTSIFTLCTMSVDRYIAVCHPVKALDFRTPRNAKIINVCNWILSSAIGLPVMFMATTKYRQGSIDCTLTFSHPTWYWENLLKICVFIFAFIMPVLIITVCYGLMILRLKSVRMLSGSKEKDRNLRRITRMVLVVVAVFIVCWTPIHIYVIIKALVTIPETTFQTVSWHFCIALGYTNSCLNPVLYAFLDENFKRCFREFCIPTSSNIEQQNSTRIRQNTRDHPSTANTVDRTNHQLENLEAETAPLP
Chain of Delta-type opioid receptor (P41143 whole entry): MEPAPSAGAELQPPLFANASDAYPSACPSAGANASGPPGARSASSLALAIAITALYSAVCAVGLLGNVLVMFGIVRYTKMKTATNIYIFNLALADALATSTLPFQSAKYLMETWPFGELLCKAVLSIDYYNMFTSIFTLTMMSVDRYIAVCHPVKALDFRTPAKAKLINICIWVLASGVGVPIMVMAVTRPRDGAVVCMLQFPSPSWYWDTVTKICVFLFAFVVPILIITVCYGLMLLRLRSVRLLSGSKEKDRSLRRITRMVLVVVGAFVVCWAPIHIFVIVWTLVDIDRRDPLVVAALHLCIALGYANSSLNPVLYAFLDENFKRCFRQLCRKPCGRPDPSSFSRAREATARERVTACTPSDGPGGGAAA
Chain of E3 ubiquitin-protein ligase Mdm2/Protein Mdm4 (Q00987 whole entry): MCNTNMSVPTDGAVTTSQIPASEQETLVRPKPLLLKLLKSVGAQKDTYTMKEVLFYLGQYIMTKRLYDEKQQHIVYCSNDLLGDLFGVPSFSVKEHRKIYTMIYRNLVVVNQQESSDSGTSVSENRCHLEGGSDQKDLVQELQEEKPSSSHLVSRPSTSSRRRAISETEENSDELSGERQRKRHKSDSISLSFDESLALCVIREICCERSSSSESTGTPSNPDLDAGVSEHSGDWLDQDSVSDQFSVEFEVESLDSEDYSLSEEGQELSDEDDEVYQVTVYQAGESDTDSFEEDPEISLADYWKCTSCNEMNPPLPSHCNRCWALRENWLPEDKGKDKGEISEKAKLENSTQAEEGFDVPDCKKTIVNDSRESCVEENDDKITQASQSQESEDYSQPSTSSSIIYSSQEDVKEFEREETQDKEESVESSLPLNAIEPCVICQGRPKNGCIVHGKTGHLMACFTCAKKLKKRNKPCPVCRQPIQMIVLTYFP
Chain of E3 ubiquitin-protein ligase Mdm2/Protein Mdm4 (O15151 whole entry): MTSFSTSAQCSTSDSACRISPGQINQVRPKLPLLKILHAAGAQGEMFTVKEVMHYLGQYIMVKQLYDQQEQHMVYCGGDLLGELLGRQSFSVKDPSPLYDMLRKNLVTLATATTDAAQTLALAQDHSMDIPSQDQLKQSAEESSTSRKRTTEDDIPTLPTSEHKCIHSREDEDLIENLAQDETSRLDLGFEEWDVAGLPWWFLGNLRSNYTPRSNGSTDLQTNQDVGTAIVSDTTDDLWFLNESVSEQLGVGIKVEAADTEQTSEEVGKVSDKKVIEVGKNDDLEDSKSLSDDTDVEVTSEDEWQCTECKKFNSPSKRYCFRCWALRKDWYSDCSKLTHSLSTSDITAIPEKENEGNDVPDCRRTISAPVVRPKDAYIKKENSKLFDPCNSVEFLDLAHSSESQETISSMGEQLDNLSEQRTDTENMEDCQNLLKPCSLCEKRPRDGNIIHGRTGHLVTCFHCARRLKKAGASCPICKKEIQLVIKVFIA

In the case of `COc1cc(-c2nc(-c3ccc(NC(=O)c4ccc5c(c4)OCO5)cc3)no2)cc(OC)c1OC`, the IC50 in assay [1] was 3.91 µM (active).

Take `N=c1c(S(=O)(=O)c2ccc(Cl)cc2)cc2c(=O)n3ccccc3nc2n1Cc1ccco1`: the IC50 on SUMO-activating enzyme [2] is 4.47 µM (active); at SUMO-activating enzyme [3], 20.9 µM (active). In assay [4], the EC50 is > 260 µM (inactive).

Consider `CCCNC(=O)Nc1ccc2nc(-c3ccco3)c(-c3ccco3)nc2c1`, for which the IC50 in assay [5] is 1.01 µM (active).

Turning to `CCCc1ccc(S(=O)(=O)NCc2ccc(C(=O)NCCN(Cc3ccccc3)C(C)C)cc2)cc1`, the IC50 in assay [6] is > 32 µM (inactive); in assay [7] it was 2 µM (active); on Mu-type opioid receptor, > 32 µM (inactive); in [8], 2.25 µM (active).
